Test system: hypertensive subjects
Experiment: Example 4 dose-ranging study: automated office blood pressure (AOBP)
Type: in vivo, human
Conditions: for Change in AOBP BPdias, Mean (sem) / Change in AOBP BPsys, Mean (sem): Week 8, Full Analysis Set
Description: A randomized, double-blinded, placebo-controlled, dose-ranging, multicenter study was conducted to evaluate the effect of orally administered Compound A HBr on blood pressure for the treatment of hypertension in male and female subjects ≥18 years of age.
The study consists of two parts. For enrollment into Part 1 of the study, a subject's value of plasma renin activity (PRA) must be ≤1 ng/mL/h based on morning measurement. If the value of PRA >1 ng/mL/h based on morning measurement, then subjects may be eligible to enter Part 2 of the study.
For Part 1, 163 enrolled subjects ≥18 years of age were randomized into 6 equal treatment groups (1:1:1:1:1:1) to 12.5 mg BID, 25 mg BID, 12.5 mg QD, 50 mg QD, 100 mg QD, or placebo. After a review of interim clinical data, the 2 lowest dose levels (12.5 mg QD and 12.5 mg BID) were stopped for future randomization due to a lack of consistent meaningful reduction of blood pressure, but the patients randomized to that point remained in the study through completion. Thus, after the review of interim clinical data, subjects were randomized into 4 equal treatment groups (1:1:1:1) to 25 mg BID, 50 mg QD, 100 mg QD, or placebo.
For Part 2, 36 enrolled subjects ≥18 years of age were randomized (5:1) to either 100 mg QD Compound A HBr or placebo such that the Compound A HBr treatment group consisted of approximately 30 subjects and the placebo treatment group will consist of approximately 6 subjects.
Subjects orally administered the assigned study drug (Compound A HBr or placebo) according to the assigned dosing regimen for 8 weeks beginning on Study Day 1. All subjects in Part 1 (regardless of dosing group) received BID dosing to preserve the integrity of the blind; active drug is administered as the morning dose for all QD dose groups. Subjects returned to the research facility or were seen by the clinical investigator or approved home health care professional at the end of Study Weeks 1, 2, 3, 4, 5, 6, 7, and 8 (±2 days) for protocol-defined efficacy and safety assessments and procedures, assessment of adverse events (AEs), and confirmation of compliance with study drug usage. Subjects also completed a telephone visit and blood pressure (BP) check at home approximately 3 days post last dose of study drug. Subjects attended up to 14 full clinic visits, including a pre-Screening visit, a Screening/start of Placebo Run-in visit, a second visit during Placebo Run-in, a clinic visit to initiate the ABPM procedure, a Randomization visit, 8 weekly visits during double-blind treatment, and an end-of-study visit scheduled 4 weeks after the last study treatment for final efficacy and safety assessments.
An automated oscillometric sphygmomanometer device was used to measure the subjects' systolic and diastolic blood pressure in office after approximately 5 minutes of rest in the seated position.
The primary endpoint is the change in office-measured (mean of last 2 of 5 unattended measurements using an automated oscillometric sphygmomanometer device after approximately 5 minutes of rest in the seated position) systolic blood pressure (SBP) from baseline to the end of Study Week 8.

[1] = pooled 50 mg QD, 100 mg QD, 12.5 mg BID and 25 mg BID cohorts (N=103)

Question: Which “reduction in AOBP systolic BP, placebo-corrected, Full-analysis set” value (100 mg, Part-1 and Part-2 (interim) combined, N=58 active) does the source give for `CC(=O)N[C@H]1CC[C@H](NC(=O)CN2CCN(c3nncc(-c4ccc(C)cc4)n3)CC2)CC1` [Compound A HBr] here?
Answer: −9.9 mmHg

Question: What about the “Difference from placebo in blood pressure change (LS modeled mean)” value (Age 65-79, 12.5 mg BID) of the same compound?
Answer: −1.5 (13)

Question: And the “Difference from placebo in blood pressure change (LS modeled mean)” value (Age 65-79, 12.5 mg QD)?
Answer: 1.1 (10)

Question: What about the “Difference from placebo in blood pressure change (LS modeled mean)” value (Age 65-79, 25 mg BID) of the same compound?
Answer: −2.4 (15)

Question: And the “Difference from placebo in blood pressure change (LS modeled mean)” value (Age 65-79, 50 mg QD)?
Answer: −8.8 (13)

Question: What about the “Difference from placebo in blood pressure change (LS modeled mean)” value (Age 65-79, 100 mg QD) of the same compound?
Answer: −1.6 (18)

Question: What about the “Difference from placebo in blood pressure change (LS modeled mean)” value (Age <65, 12.5 mg BID) of the same compound?
Answer: −5.4 (6)

Question: And the “Difference from placebo in blood pressure change (LS modeled mean)” value (Age <65, 12.5 mg QD)?
Answer: −0.3 (10)

Question: And the “Difference from placebo in blood pressure change (LS modeled mean)” value (Age <65, 25 mg BID)?
Answer: −8.5 (13)

Question: What about the “Difference from placebo in blood pressure change (LS modeled mean)” value (Age <65, 50 mg QD) of the same compound?
Answer: −10.2 (13)

Question: And the “Difference from placebo in blood pressure change (LS modeled mean)” value (Age <65, 100 mg QD)?
Answer: −15.7 (8)

Question: And the “Difference from placebo in blood pressure change (LS modeled mean)” value (Background hypertension therapy 2 medications, 12.5 mg BID)?
Answer: −1.2 (7)

Question: And the “Difference from placebo in blood pressure change (LS modeled mean)” value (Background hypertension therapy 2 medications, 12.5 mg QD)?
Answer: 1.8 (14)

Question: And the “Difference from placebo in blood pressure change (LS modeled mean)” value (Background hypertension therapy 2 medications, 25 mg BID)?
Answer: 1.4 (14)

Question: And the “Difference from placebo in blood pressure change (LS modeled mean)” value (Background hypertension therapy 2 medications, 50 mg QD)?
Answer: −3.7 (20)

Question: What about the “Difference from placebo in blood pressure change (LS modeled mean)” value (Background hypertension therapy 2 medications, 100 mg QD) of the same compound?
Answer: −7.5 (14)

Question: And the “Difference from placebo in blood pressure change (LS modeled mean)” value (Background hypertension therapy 3+ medications, 12.5 mg BID, * p < 0.05)?
Answer: −12.2* (15)

Question: And the “Difference from placebo in blood pressure change (LS modeled mean)” value (Background hypertension therapy 3+ medications, 12.5 mg QD)?
Answer: −6.0 (9)

Question: What about the “Difference from placebo in blood pressure change (LS modeled mean)” value (Background hypertension therapy 3+ medications, 25 mg BID, * p < 0.05) of the same compound?
Answer: −15.8* (16)

Question: What about the “Difference from placebo in blood pressure change (LS modeled mean)” value (Background hypertension therapy 3+ medications, 50 mg QD, * p < 0.05) of the same compound?
Answer: −19.1* (8)

Question: And the “Difference from placebo in blood pressure change (LS modeled mean)” value (Background hypertension therapy 3+ medications, 100 mg QD)?
Answer: −9.6 (16)

Question: And the “Difference from placebo in blood pressure change (LS modeled mean)” value (Baseline BPsys High tertile, 12.5 mg BID)?
Answer: −9.7

Question: What about the “Difference from placebo in blood pressure change (LS modeled mean)” value (Baseline BPsys High tertile, 12.5 mg QD) of the same compound?
Answer: −3.6

Question: What about the “Difference from placebo in blood pressure change (LS modeled mean)” value (Baseline BPsys High tertile, 25 mg BID) of the same compound?
Answer: −5.6

Question: And the “Difference from placebo in blood pressure change (LS modeled mean)” value (Baseline BPsys High tertile, 50 mg QD, * p < 0.05)?
Answer: −20.6*

Question: And the “Difference from placebo in blood pressure change (LS modeled mean)” value (Baseline BPsys High tertile, 100 mg QD)?
Answer: −9.7

Question: What about the “Difference from placebo in blood pressure change (LS modeled mean)” value (Baseline BPsys Low tertile, 12.5 mg BID) of the same compound?
Answer: 3.8

Question: What about the “Difference from placebo in blood pressure change (LS modeled mean)” value (Baseline BPsys Low tertile, 12.5 mg QD) of the same compound?
Answer: −10.7

Question: What about the “Difference from placebo in blood pressure change (LS modeled mean)” value (Baseline BPsys Low tertile, 25 mg BID) of the same compound?
Answer: −8.8

Question: What about the “Difference from placebo in blood pressure change (LS modeled mean)” value (Baseline BPsys Low tertile, 50 mg QD) of the same compound?
Answer: −8.3

Question: What about the “Difference from placebo in blood pressure change (LS modeled mean)” value (Baseline BPsys Low tertile, 100 mg QD) of the same compound?
Answer: −11.8

Question: And the “Difference from placebo in blood pressure change (LS modeled mean)” value (Baseline BPsys Middle tertile, 12.5 mg BID)?
Answer: −9.7

Question: What about the “Difference from placebo in blood pressure change (LS modeled mean)” value (Baseline BPsys Middle tertile, 12.5 mg QD) of the same compound?
Answer: 9.3

Question: What about the “Difference from placebo in blood pressure change (LS modeled mean)” value (Baseline BPsys Middle tertile, 25 mg BID) of the same compound?
Answer: −4.0

Question: What about the “Difference from placebo in blood pressure change (LS modeled mean)” value (Baseline BPsys Middle tertile, 50 mg QD) of the same compound?
Answer: −11.9

Question: And the “Difference from placebo in blood pressure change (LS modeled mean)” value (Baseline BPsys Middle tertile, 100 mg QD)?
Answer: −11.8

Question: And the “Difference from placebo in blood pressure change (LS modeled mean)” value (Gender Female, 12.5 mg BID)?
Answer: −3.79 (14)

Question: And the “Difference from placebo in blood pressure change (LS modeled mean)” value (Gender Female, 12.5 mg QD)?
Answer: −0.2 (12)

Question: And the “Difference from placebo in blood pressure change (LS modeled mean)” value (Gender Female, 25 mg BID)?
Answer: −5.18 (19)

Question: What about the “Difference from placebo in blood pressure change (LS modeled mean)” value (Gender Female, 50 mg QD) of the same compound?
Answer: −11.3 (15)

Question: What about the “Difference from placebo in blood pressure change (LS modeled mean)” value (Gender Female, 100 mg QD) of the same compound?
Answer: −5.1 (18)

Question: What about the “Difference from placebo in blood pressure change (LS modeled mean)” value (Gender Male, 12.5 mg BID) of the same compound?
Answer: −13.8 (8)

Question: And the “Difference from placebo in blood pressure change (LS modeled mean)” value (Gender Male, 12.5 mg QD)?
Answer: −2.3 (11)

Question: And the “Difference from placebo in blood pressure change (LS modeled mean)” value (Gender Male, 25 mg BID)?
Answer: −9.5 (11)

Question: What about the “Difference from placebo in blood pressure change (LS modeled mean)” value (Gender Male, 50 mg QD) of the same compound?
Answer: −8.3 (13)

Question: What about the “Difference from placebo in blood pressure change (LS modeled mean)” value (Gender Male, 100 mg QD) of the same compound?
Answer: −12.4 (12)

Question: And the “reduction in AOBP systolic BP, per-protocol, placebo-corrected” value (Part-1 100 mg cohort)?
Answer: −10.3 mmHg

Question: And the “Difference from placebo in blood pressure change (LS modeled mean)” value (Race Black, 12.5 mg BID)?
Answer: 5.57 (7)

Question: What about the “Difference from placebo in blood pressure change (LS modeled mean)” value (Race Black, 12.5 mg QD) of the same compound?
Answer: 6.75 (11)

Question: And the “Difference from placebo in blood pressure change (LS modeled mean)” value (Race Black, 25 mg BID)?
Answer: −10.1 (7)

Question: What about the “Difference from placebo in blood pressure change (LS modeled mean)” value (Race Black, 50 mg QD) of the same compound?
Answer: −6.9 (8)

Question: And the “Difference from placebo in blood pressure change (LS modeled mean)” value (Race Black, 100 mg QD)?
Answer: −7.0 (15)

Question: What about the “Difference from placebo in blood pressure change (LS modeled mean)” value (Race Other, 12.5 mg BID) of the same compound?
Answer: −14.7 (15)

Question: What about the “Difference from placebo in blood pressure change (LS modeled mean)” value (Race Other, 12.5 mg QD) of the same compound?
Answer: −7.5 (12)

Question: What about the “Difference from placebo in blood pressure change (LS modeled mean)” value (Race Other, 25 mg BID) of the same compound?
Answer: −7.2 (23)

Question: What about the “Difference from placebo in blood pressure change (LS modeled mean)” value (Race Other, 50 mg QD) of the same compound?
Answer: −12.1 (20)

Question: What about the “Difference from placebo in blood pressure change (LS modeled mean)” value (Race Other, 100 mg QD) of the same compound?
Answer: −9.2 (15)

Question: What about the “Change in AOBP BPdias, Mean (sem)” value (12.5 mg BID) of the same compound?
Answer: −6.1 (1.8) mmHg

Question: And the “Change in AOBP BPsys, Mean (sem)” value (12.5 mg BID)?
Answer: −11.3 (3.1) mmHg

Question: And the “Change in AOBP BPdias, Mean (sem)” value (12.5 mg QD)?
Answer: −6.1 (1.8) mmHg

Question: What about the “Change in AOBP BPsys, Mean (sem)” value (12.5 mg QD) of the same compound?
Answer: −5.7 (3.1) mmHg

Question: And the “Change in AOBP BPdias, Mean (sem)” value (25 mg BID)?
Answer: −3.83 (2.1) mmHg

Question: And the “Change in AOBP BPsys, Mean (sem)” value (25 mg BID)?
Answer: −11.0 (2.6) mmHg

Question: What about the “Change in AOBP BPdias, Mean (sem)” value (50 mg QD) of the same compound?
Answer: −8.1 (1.7) mmHg

Question: What about the “Change in AOBP BPsys, Mean (sem)” value (50 mg QD) of the same compound?
Answer: −13.9 (2.6) mmHg

Question: And the “Change in AOBP BPdias, Mean (sem)” value (100 mg QD)?
Answer: −4.76 (1.5) mmHg

Question: And the “Change in AOBP BPsys, Mean (sem)” value (100 mg QD)?
Answer: −12.2 (2.7) mmHg

Question: What about the “mean reduction in AOBP measured systolic BP” value (doses of 50 mg and 100 mg QD) of the same compound?
Answer: −11 to −13 mmHg

Question: And the “subjects with a change in BPsys >−15 mmHg” value [1]?
Answer: 41%

Question: And the “subjects with a change in BPsys >−25 mmHg” value [1]?
Answer: 25%

Question: And the “subjects who achieved >−23 mmHg fall in systolic blood pressure” value (week 8, pooled 50 mg QD, 100 mg QD, 12.5 mg BID, 25 mg BID cohorts)?
Answer: 25%

Question: And the “mean reduction in systolic blood pressure in the highest response quartile” value (week 8, pooled cohorts)?
Answer: −33.4+1.5 mmgHg

Question: What about the “subjects who achieved a ≥15 mmHg fall in systolic blood pressure” value (week 8, pooled cohorts) of the same compound?
Answer: 41%

Source: patent publication US20250099475A1, “METHODS OF TREATING HYPERTENSION BY PERIODIC SUPPRESSION OF ALDOSTERONE SYNTHASE” (Mineralys Therapeutics, Inc., priority 2022, published 2025)
